Experimental data taken from patent publication US8318781B2, “G-protein-conjugated receptor agonist” (Japan Science and Technology Agency, priority 2007, dated 2012).
Read-outs that look alike come from different tables or passages of the source.

Assays:
Type in all cases: cell-based
human GPR120 (hGPR120) [1] = target: T1, human GPR120 (hGPR120) (Homo sapiens, UniProt Q5NUL3); assay: Determination of intracellular Ca2+ concentration (FLIPR), cell line GPR120/Flp-in; settings: for [Ca^2+]/GPR120/Flp-In 10 μM (ratio vs. LA): relative fluorescence intensity vs LA at 10 μM
T1 construct: expressed in transfected cells; doxycycline-inducible expression vector
T1 sequence (Q5NUL3 1-361): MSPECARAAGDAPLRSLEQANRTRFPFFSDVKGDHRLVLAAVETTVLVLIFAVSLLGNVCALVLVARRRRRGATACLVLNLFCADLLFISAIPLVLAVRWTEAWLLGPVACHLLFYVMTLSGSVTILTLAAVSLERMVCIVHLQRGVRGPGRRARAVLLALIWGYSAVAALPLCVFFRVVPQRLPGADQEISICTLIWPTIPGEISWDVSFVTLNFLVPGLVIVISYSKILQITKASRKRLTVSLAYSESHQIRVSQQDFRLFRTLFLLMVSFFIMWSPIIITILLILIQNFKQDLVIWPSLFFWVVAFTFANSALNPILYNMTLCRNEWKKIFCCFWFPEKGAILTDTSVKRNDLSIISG
Protocol: (§1) (1) In this test, The cell lines TXGPR40, TXGPR120 and GPR120/Flp-in were plated onto a collagen-coated black 96-well plate in 2×10^5 cells/well. The 96-well plates containing the cells were centrifuged and treated with Doxycycline (final concentration 10 μg/mL), incubated in a CO2 incubator for 21 hours, then used for assay.
(§2) (2) The ligand used in this test includes NCP04, NCP14, NCG20, NCG21, NCG22, NCG23, NCP02, NCP03, NCP05, NCP06, NCG14, NCG17, NCG19, NCG28, NCG29, NCG30, NCG31, NCG34, NCG35, NCG37, NCG38, NCG44, NCG45, NCG46, and NCG54. Each ligand was dissolved in DMSO and adjusted to the concentration of 10 mM, then diluted with Hanks' Balanced Salt Solution (pH 7.4) containing 20 mM HEPES (referred to as FLIPR buffer hereinafter) to the final concentration of 1 to 100 μM. 1% DMSO was used as the negative control, and LA was used as the positive control.
(§3) The ligands and controls were placed in different 96-well plates from the plates for the cells.
(§4) (3) The 96-well plate containing the cells was removed from the CO2 incubator. A fluorescent dye prepared in a twofold higher concentration (Ca Assay Kit Component A diluted with FLIPR Buffer) was added in 50 μL/well, then allowed to stand in the dark at room temperature for one hour.
(§5) (4) After one hour, the 96-well plate containing the cells and the 96-well plate in which ligands and controls were prepared were set on FLIPR (Fluorometric Imaging Plate Reader) for determination.
(§6) (5) Fluorometry using FLIPR was carried out at a laser output of 1.0 W for five minutes. […] after the start of the determination, the ligand (25 μL) was added dropwise to the cell plate at a rate of 50 μL/sec. The intensity of fluorescence was automatically digitized by the application program installed in the FLIPR from the image taken by the CCD camera (with exposure time of 0.40 sec). The interval of data sampling was one second for the initial one minute after the start of operation, and six seconds for the subsequent four minutes.
(§7) (6) The maximum fluorescence intensity was obtained from the data showing the change in the fluorescence intensity over time observed in each well. The maximum fluorescence intensity was plotted against ligand concentration, and pEC50 was calculated. The ratio of the fluorescence intensity for each ligand to LA at 10 μM was calculated as the relative intensity of each ligand.

human GPR40 (hGPR40) [2] = target: T2, human GPR40 (hGPR40) (Homo sapiens, UniProt O14842); assay: Determination of intracellular Ca2+ concentration (FLIPR), cell line TXGPR40; settings: for agonistic activity for GPR40 (in words): cells in which GPR40 has been transgenically expressed; for [Ca^2+]/GPR40 10 μM (ratio vs. LA): relative fluorescence intensity vs LA at 10 μM
T2 construct: expressed in transfected cells; doxycycline-inducible expression vector
Protocol: as §1, §2, §3, §4, §5, §6, §7

human GPR120 (hGPR120) [3] = target: T1, human GPR120 (hGPR120); assay: ERK assay, screening for GPR120 ligands in cell line TXGPR120;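 on ERK/GPR120 10 μM: signals normalized between DMSO and PMA controls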; settings: for ERK activation for GPR120 (in words) / ERK/GPR120 10 μM / ERK/GPR120 100 μM: TXGPR120 cells; for ERK activation for GPR120 (in words): FIGS. 5-8; for ERK/GPR120 10 μM: ligand 10 μM; for ERK/GPR120 10 μM / ERK/GPR120 100 μM: class relative to LA; for ERK/GPR120 100 μM: ligand 100 μM
Protocol: (§8) This Test 1 was carried out by using the following materials and methods.
(§9) (1) In this test, the cell lines TXGPR40 and TXGPR120 were plated in 35-mm dishes in 5×10^5 cells/per dish.
(§10) Each ligand was dissolved in DMSO, diluted tenfold with the medium to make the total amount of 100 μl. DMSO was used as the negative control, and PMA (phorbol-12-myristate-13-acetate) was used as the positive control.
(§11) (3) The medium was removed from the dish of the cell to reduce the total amount of liquid to 0.9 ml.
(§12) (4) The ligand solution was added dropwise to the cell solution, and dispersed by gently shaking the dish, and allowed to react at room temperature.
(§13) (5) After 5 minutes of reaction, the medium was discarded, and the remaining medium on the dish was removed on ice using an aspirator.
(§14) (6) 150 μl of Lysis buffer (50 mM HEPES (pH 7.0), 150 mM NaCl, 10% glycerol, 1% NonidetP-40, 2 mM MgCl2, 1 mM EDTA, 100 mM NaF, 10 mM sodium phosphate, 1 mM Na3VO4, 20 mM β-glycerophosphate, and Proteinase inhibitor) were added, then the cells were collected using a cell scraper.
(§15) (1) The crude enzyme solution mixed with SDS Sample Buffer was subjected to ultrasonication with a sonifier, then incubated at 90° C. for five minutes.
(§16) (2) The mixture was vortexed and centrifuged at 15,000 rpm for five minutes at 4° C.
(§17) (3) The supernatant of the centrifuged sample was applied to two 7.5% acrylamide gel slabs placed in an electrophoresis tank filled with 1×SDS-PAGE Running Buffer (25 mM Tris, 0.2 M Glycin, and 1% SDS). Electrophoresis was carried out under a constant current of 40 mA for about 80 to 90 minutes.
(§18) (1) A PVDF membrane cut in the same size as the gel slab was immersed in methanol for about 15 seconds and then shaken in Transfer Buffer C solution (25 mM Tris, 0.02% SDS, 2% methanol and 40 mM 6-aminohexanoic acid) at room temperature to swell for 15 minutes. Filter paper for blotting was cut into a 10-cm square.
(§19) (2) On the blotting apparatus were placed sequentially two pieces of filter paper immersed in A solution (0.3 M Tris, 0.02% SDS and 2% methanol), two pieces of filter paper immersed in B solution (25 mM Tris, 0.02% SDS and 2% methanol), and the membrane thereon. The gel slab after electrophoresis, and finally two pieces of filter paper immersed in C solution was placed thereon, and the apparatus was closed.
(§20) (3) The protein was transferred to the membrane at 15 V for 30 minutes.
(§21) (1) The following procedure was all carried out at room temperature. After the protein transfer, the membrane was placed into a vial containing 1×TTBS (0.2 M Tris, 1.5 M NaCl, 0.2% Tween 20) and washed for 15 minutes.
(§22) (2) TTBS was discarded, and about 10 ml of Block Ace was added and blocked on a shaker for one hour.
(§23) (1) The primary antibodies (p44/42 MAP Kinase Antibody and Phospho-p44/42 MAP Kinase Antibody) were each diluted 1000-fold with TTBS.
(§24) (2) After blocking, the Block Ace solution was removed, the solution of the primary antibody was added and allowed to react on the shaker for two hours.
(§25) (1) The secondary antibody (Anti-rabbit Ig, Horseradish Peroxidase linked F(ab′)2 fragments) was diluted 5000-fold with TTBS.
(§26) (2) The primary antibody solution was removed and the membrane was washed three times on the shaker in TTBS for five to ten minutes each.
(§27) (3) TTBS was removed and the solution of secondary antibody was added and left for 1 hour on the shaker.
(§28) (1) 2 ml each of Detection Reagent 1 and Detection Reagent 2 from ECL kit were mixed together on ice.
(§29) (2) The solution of secondary antibody was removed from the membrane reacted with the secondary antibody and then washed three times on the shaker in TTBS for five minutes each.
(§30) (3) The liquid was thoroughly removed from the membrane, which was then placed in a plastic bag, and 2 ml of the Detection Reagent mixture was added per each membrane.
(§31) (4) The membrane was kept in contact with a film in the cassette for one to five minutes, and the film was developed using an automatic developing machine.

human GPR120 (hGPR120) [4] = target: T1, human GPR120 (hGPR120); assay: Determination of intracellular Ca2+ concentration (FLIPR), cell line TXGPR120; settings: for agonistic activity for hGPR120 (in words): cells in which GPR120 has been transgenically expressed; for [Ca^2+]/GPR120 10 μM (ratio vs. LA): relative fluorescence intensity vs LA at 10 μM
Protocol: as §1, §2, §3, §4, §5, §6, §7

human GPR40 (hGPR40) [5] = target: T2, human GPR40 (hGPR40); assay: ERK assay, screening for GPR40 ligands in cell line TXGPR40; settings: TXGPR40 cells; for ERK/GPR40 10 μM: ligand 10 μM; for ERK/GPR40 10 μM / ERK/GPR40 100 μM: class relative to LA; for ERK/GPR40 100 μM: ligand 100 μM
Protocol: as §8, §9, §10, §11, §12, §13, §14, §15, §16, §17, §18, §19, §20, §21, §22, §23, §24, §25, §26, §27, §28, §29, §30, §31

T2 sequence (O14842 whole entry): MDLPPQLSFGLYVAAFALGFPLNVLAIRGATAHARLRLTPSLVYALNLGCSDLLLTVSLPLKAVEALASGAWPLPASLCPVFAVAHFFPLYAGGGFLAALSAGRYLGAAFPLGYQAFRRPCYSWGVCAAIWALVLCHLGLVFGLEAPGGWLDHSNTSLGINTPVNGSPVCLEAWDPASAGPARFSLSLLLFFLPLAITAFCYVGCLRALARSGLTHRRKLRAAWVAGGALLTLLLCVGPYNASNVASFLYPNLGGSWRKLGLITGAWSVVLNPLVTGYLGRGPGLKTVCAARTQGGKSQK

EC50 (human GPR120 (hGPR120) [1]) [µM]	[Ca^2+]/GPR120/Flp-In 10 μM (ratio vs. LA) (human GPR120 (hGPR120) [1]; GPR120/Flp-in cells)	EC50 (human GPR40 (hGPR40) [2]) [µM]	agonistic activity for GPR40 (in words) (human GPR40 (hGPR40) [2])	[Ca^2+]/GPR40 10 μM (ratio vs. LA) (human GPR40 (hGPR40) [2]; TXGPR40 cells)	ERK activation for GPR120 (in words) (human GPR120 (hGPR120) [3])	ERK/GPR120 10 μM (human GPR120 (hGPR120) [3])	ERK/GPR120 100 μM (human GPR120 (hGPR120) [3])	EC50 (human GPR120 (hGPR120) [4]) [µM]	agonistic activity for hGPR120 (in words) (human GPR120 (hGPR120) [4])	[Ca^2+]/GPR120 10 μM (ratio vs. LA) (human GPR120 (hGPR120) [4]; TXGPR120 cells)	ERK/GPR40 10 μM (human GPR40 (hGPR40) [5])	ERK/GPR40 100 μM (human GPR40 (hGPR40) [5])	ERK activation for GPR40 (in words) (human GPR40 (hGPR40) [5]; FIGS. 1-4)	EC50 (human GPR120 (hGPR120) [1]; GPR120/Flp-in cells, maximum fluorescence intensity vs ligand concentration, read-out: [Ca^2+]/GPR120/Flp-In pEC50 (converted)) [µM]	EC50 (human GPR40 (hGPR40) [2]; TXGPR40 cells, maximum fluorescence intensity vs ligand concentration, read-out: [Ca^2+]/GPR40 pEC50 (converted)) [µM]	selectivity for GPR120 in ERK assay (in words) (human GPR120 (hGPR120) [3]; GPR120 versus GPR40)	EC50 (human GPR120 (hGPR120) [4]; TXGPR120 cells, maximum fluorescence intensity vs ligand concentration, read-out: [Ca^2+]/GPR120 pEC50 (converted)) [µM]	SMILES	selectivity between GPR40 and GPR120 (in words), from Tables 3 and 4 (human GPR120 (hGPR120) [4]; GPR40 versus GPR120, Ca2+ and ERK results)
6.92	0.81	22.4	showed a specific reactivity	0.43	strongly activate ERK	+++ (+++ denotes a higher value than LA)	+++ (+++ denotes a higher value than LA)	28.8	exhibit a similar effect	0.49	+ (+ denotes 0 to 100% of LA)	+++ (+++ denotes a higher value than LA)	–	–	–	–	–	Cc1ccnc(N(CCOc2ccc(CCCC(=O)O)cc2)c2ccccc2)c1 [NCG34]	–
4.57	1.00	7.76	showed a specific reactivity	0.68	strongly activate ERK	+++ (+++ denotes a higher value than LA)	+++ (+++ denotes a higher value than LA)	16.2	exhibit a similar effect	0.61	+++ (+++ denotes a higher value than LA)	+++ (+++ denotes a higher value than LA)	strongly activated ERK	–	–	–	–	O=C(O)CCCc1ccc(OCCN(c2ccccc2)c2cc(Cl)ccn2)cc1 [NCG35]	–
–	0.91	–	–	0.28	strongly activate ERK	+++ (+++ denotes a higher value than LA)	+++ (+++ denotes a higher value than LA)	–	exhibit a similar effect	0.56	–	+ (+ denotes 0 to 100% of LA)	–	3.47	16.2	selective for GRP120	17.8	COc1cccc(N(CCOc2ccc(CCCC(=O)O)cc2)c2ccccc2)n1 [NCG37]	acting relatively mildly for GPR40 but acting strongly for GPR120
